Marks after values point to notes of the source that are not given here.
How the values were obtained:
[1] = system: Rabbit Psoas myofibrils (skeletal myosin ATPase); assay: Myofibril ATPase assay, rabbit psoas (skeletal) myofibrils; assay type: biochemical; details: rabbit psoas myofibrils
Method in brief: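 Readout: A340 decline from NADH oxidation, PK/LDH-coupled to ADP release; kinetic reads over 75 min. Buffer: pCa (PIPES, CaCl2, EGTA), pH 7.0. Linear-regression slopes vs vehicle, 4PL fit; reported as concentration giving 75% (Y75) or 125% (Y125) of vehicle activity.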

[2] = system: Porcine atria myofibrils (atrial myosin ATPase); assay: Myofibril ATPase assay, porcine atria myofibrils; assay type: biochemical; details: porcine atria myofibrils
Method in brief: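 Coupled PK-LDH readout, NADH loss at 340 nm, kinetic 75 min. Porcine atria myofibrils, pCa buffer (PIPES/CaCl2/EGTA, pH 7.0). Slopes (mAU/min) normalized to vehicle = 100%, 4-parameter fit; Y75 or Y125 reported.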

[3] = target: T1, Porcine ventricle myofibrils (ventricular myosin ATPase) (Sus scrofa, UniProt P79293); assay: Myofibril ATPase assay, porcine ventricle myofibrils; assay type: biochemical, porcine (Yucatan minipigs); details: porcine ventricle myofibrils
T1 construct: Myofibrils from porcine cardiac muscle was isolated from the left ventricle of Yucatan minipigs; tissue Exemplar Genetics; host or cells: left ventricle of Yucatan minipigs, myofibrils prepared in house
Method in brief: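 Myofibrils isolated from Yucatan minipig left ventricle; coupled PK/LDH NADH assay, pCa buffer pH 7.0, kinetic A340 reads over 75 min. Vehicle-normalized slopes fit 4PL; Y75/Y125 derived.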

[4] = Y75 value (75% activity relative to no compound)

T1 sequence (P79293 whole entry): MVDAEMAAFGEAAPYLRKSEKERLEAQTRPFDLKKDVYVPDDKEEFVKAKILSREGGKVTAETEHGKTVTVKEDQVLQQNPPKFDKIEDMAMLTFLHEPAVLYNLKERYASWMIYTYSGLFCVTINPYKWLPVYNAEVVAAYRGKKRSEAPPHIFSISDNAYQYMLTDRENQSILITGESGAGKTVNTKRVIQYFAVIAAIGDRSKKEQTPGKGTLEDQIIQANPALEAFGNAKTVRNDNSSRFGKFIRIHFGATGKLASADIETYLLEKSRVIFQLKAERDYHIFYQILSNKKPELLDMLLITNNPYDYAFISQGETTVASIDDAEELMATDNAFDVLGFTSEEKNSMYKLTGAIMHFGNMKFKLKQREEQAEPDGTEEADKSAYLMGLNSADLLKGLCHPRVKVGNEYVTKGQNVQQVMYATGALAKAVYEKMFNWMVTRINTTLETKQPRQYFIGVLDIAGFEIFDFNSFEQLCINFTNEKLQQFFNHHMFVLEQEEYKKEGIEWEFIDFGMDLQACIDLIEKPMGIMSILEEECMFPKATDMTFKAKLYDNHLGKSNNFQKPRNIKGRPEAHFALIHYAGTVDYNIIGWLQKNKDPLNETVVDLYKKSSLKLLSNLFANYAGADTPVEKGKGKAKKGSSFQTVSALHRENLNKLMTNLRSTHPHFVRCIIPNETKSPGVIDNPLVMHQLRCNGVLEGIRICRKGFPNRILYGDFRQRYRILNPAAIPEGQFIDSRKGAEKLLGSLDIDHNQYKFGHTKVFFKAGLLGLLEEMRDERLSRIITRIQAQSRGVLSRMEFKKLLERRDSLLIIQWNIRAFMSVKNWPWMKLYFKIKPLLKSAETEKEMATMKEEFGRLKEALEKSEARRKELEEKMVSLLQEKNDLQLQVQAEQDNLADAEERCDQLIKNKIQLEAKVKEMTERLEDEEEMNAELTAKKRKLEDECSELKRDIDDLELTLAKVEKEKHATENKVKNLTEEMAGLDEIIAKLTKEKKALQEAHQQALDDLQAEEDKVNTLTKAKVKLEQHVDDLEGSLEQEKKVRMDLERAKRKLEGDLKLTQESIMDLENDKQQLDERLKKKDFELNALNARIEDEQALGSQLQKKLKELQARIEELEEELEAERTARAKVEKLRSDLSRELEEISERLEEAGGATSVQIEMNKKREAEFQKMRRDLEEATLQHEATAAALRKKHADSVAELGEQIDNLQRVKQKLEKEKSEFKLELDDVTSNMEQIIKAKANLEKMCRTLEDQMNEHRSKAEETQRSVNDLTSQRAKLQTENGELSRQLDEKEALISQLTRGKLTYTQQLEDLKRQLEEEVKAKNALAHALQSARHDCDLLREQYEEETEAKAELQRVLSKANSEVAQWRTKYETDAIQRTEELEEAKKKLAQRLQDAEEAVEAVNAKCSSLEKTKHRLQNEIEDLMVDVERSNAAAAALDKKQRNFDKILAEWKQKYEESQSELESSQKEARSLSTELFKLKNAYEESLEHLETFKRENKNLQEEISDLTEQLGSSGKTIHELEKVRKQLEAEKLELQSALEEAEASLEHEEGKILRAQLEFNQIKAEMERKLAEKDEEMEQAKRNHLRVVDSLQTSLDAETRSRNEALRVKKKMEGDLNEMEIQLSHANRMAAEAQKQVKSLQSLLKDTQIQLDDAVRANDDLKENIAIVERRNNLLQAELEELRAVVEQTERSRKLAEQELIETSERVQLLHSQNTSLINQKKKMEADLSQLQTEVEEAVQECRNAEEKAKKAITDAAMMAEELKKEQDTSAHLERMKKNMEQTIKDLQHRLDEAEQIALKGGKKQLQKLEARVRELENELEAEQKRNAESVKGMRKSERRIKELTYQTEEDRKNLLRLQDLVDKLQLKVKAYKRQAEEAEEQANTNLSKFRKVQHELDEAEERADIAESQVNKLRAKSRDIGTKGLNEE

Skeletal EC25 ([1]; Y75 value) | Atrial EC25 [2, 4] | Ventricular EC25 ([3]; Y75 value) | Skeletal EC25 ([1]; Y75 value (no ‡ mark)) | Atrial EC25 ([2]; Y75 value (no ‡ mark)) | Ventricular EC25 ([3]; Y75 value (no ‡ mark)) | Skeletal EC25 (Y125 value, marked ‡) ([1]; Y125 value, not a Y75 value) | Atrial EC25 (Y125 value, marked ‡) ([2]; Y125 value (125% activity), not a Y75 value) | Structure (SMILES)
42.18 µM | 100.00 µM | 100.00 µM |  |  |  |  |  | C[C@@H](NC(=O)Cc1c(C2CC2)c2cnccc2[nH]c1=O)c1ccc(C#N)cn1 [compound 140]
 |  |  | 1.00 µM | 0.15 µM | 0.23 µM |  |  | Cc1c(CC(=O)N[C@H](C)c2ncc(C#N)cc2F)c(=O)[nH]c2ccc(Cl)cc12 (single isomer, unassigned) [compound 2049]
 |  |  | 100 µM | 100.00 µM | 100.00 µM |  |  | Cc1c(CC(=O)N[C@@H]2COCc3cc(C#N)cnc32)c(=O)[nH]c2ccc(F)cc12 [compound 1056]
15.42 µM | 100.00 µM | 100.00 µM |  |  |  |  |  | C[C@@H](NC(=O)Cc1cc2c(C#N)nccc2[nH]c1=O)c1ccc(F)cn1 [compound 474]
 |  |  | 0.09 µM | 0.29 µM | 0.84 µM |  |  | C[C@H](NC(=O)Cc1c(C2CC2)c2c(F)cccc2[nH]c1=O)c1ncc(C#N)cc1F [compound 1144]
0.06 µM | 0.02 µM | 0.12 µM |  |  |  |  |  | Cc1c(CC(=O)N[C@@H](C)c2ncc(C#N)cc2F)c(=O)[nH]c2ccc(C(F)(F)F)nc12 [compound 147]
0.60 µM | 2.35 µM | 7.68 µM |  |  |  |  |  | C[C@H](NC(=O)Cc1c(C(F)F)c2cnccc2[nH]c1=O)c1ccc(F)cc1F [compound 438]
 |  |  | 12.45 µM | 100.00 µM | 100.00 µM |  |  | C[C@@H](NC(=O)Cc1c(C2CC2)c2cc(F)ccc2[nH]c1=O)c1ccc(C#N)nn1 (single isomer, unassigned) [compound 2053]
 |  |  | 0.31 µM | 1.93 µM | 6.53 µM |  |  | Cc1c(CC(=O)N[C@H](C)c2ccc(C#N)cn2)c(=O)[nH]c2cccc(F)c12 [compound 53]
 |  |  | 0.66 µM | 1.25 µM | 3.45 µM |  |  | C[C@H](NC(=O)Cc1cc2c(C(F)(F)F)c(F)ccc2[nH]c1=O)c1ncc(C#N)cn1 (single isomer, unassigned) [compound 2010]
0.07 µM | 0.47 µM | 7.78 µM |  |  |  |  |  | Cc1c(CC(=O)N[C@@H](CO)c2ccc(C#N)cc2F)c(=O)[nH]c2ccnc(OC3CC3)c12 [compound 204]
 |  |  | 0.47 µM | 1.90 µM | 0.15 µM |  |  | Cc1c(F)ccc2[nH]c(=O)c(CC(=O)N[C@H](C)c3ncc(C#N)cc3F)c(C#N)c12 [compound 1149]
 |  |  | 100.00 µM | 100.00 µM | 100.00 µM |  |  | C[C@@H](NC(=O)Cc1c(C2CC2)c2cc(F)ccc2[nH]c1=O)c1ncc(C#N)cc1F [compound 39]
 |  | 100.00 µM |  |  |  | 94.25‡ μM | 92.51‡ μM | C[C@@H](NC(=O)Cc1c(C(F)(F)F)c2c(C3CC3)nccc2[nH]c1=O)c1ccc(C#N)nn1 (single isomer, unassigned) [compound 3003]
 |  |  | 1.10 µM | 100.00 µM | 100.00 µM |  |  | C[C@@H](NC(=O)Cc1c(C2CC2)c2c(F)c(F)ccc2[nH]c1=O)c1ccc(C#N)nn1 (single isomer, unassigned) [compound 2065]

Further lines, the molecule ahead of its results:

Structure (SMILES) | Skeletal EC25 ([1]; Y75 value) | Atrial EC25 [2, 4] | Ventricular EC25 ([3]; Y75 value) | Skeletal EC25 ([1]; Y75 value (no ‡ mark)) | Atrial EC25 ([2]; Y75 value (no ‡ mark)) | Ventricular EC25 ([3]; Y75 value (no ‡ mark)) | Skeletal EC25 (Y125 value, marked ‡) ([1]; Y125 value, not a Y75 value) | Atrial EC25 (Y125 value, marked ‡) ([2]; Y125 value (125% activity), not a Y75 value)
Cc1c(CC(=O)N[C@@H](CO)c2ncccc2F)c(=O)[nH]c2ccnc(C#N)c12 (single isomer, unassigned) [compound 236] | 0.59 µM | 38.11 µM | 100.00 µM |  |  |  |  | 
C[C@H](NC(=O)[C@@H](C)c1cc2c(Br)nccc2[nH]c1=O)c1ccc(F)cc1F (single isomer, unassigned) [compound 344] | 0.23 µM | 9.52 µM | 90.74 µM |  |  |  |  | 
Cc1nc(C#N)ncc1[C@@H](C)NC(=O)Cc1cc2cc(F)c(F)cc2[nH]c1=O [compound 1096] |  |  |  | 12.10 µM | 31.81 µM | 100.00 µM |  | 
Cc1c(CC(=O)N[C@@H](CO)c2ccc(F)cc2F)c(=O)[nH]c2ccnc(C#N)c12 [compound 230] | 0.02 µM | 0.11 µM | 0.96 µM |  |  |  |  | 
Cc1c(F)ccc2[nH]c(=O)c(CC(=O)N[C@@H](C)c3ccc(C#N)cc3F)c(O)c12 [compound 20] |  |  |  | 0.51 µM | 0.21 µM | 0.31 µM |  | 
COC[C@H](NC(=O)Cc1c(C)c2c(C#N)nccc2[nH]c1=O)c1ccc(C#N)cc1F [compound 170] | 0.03 µM | 0.08 µM | 1.02 µM |  |  |  |  | 
Cc1nccc2[nH]c(=O)c(CC(=O)N[C@@H]3COc4cc(C#N)cc(F)c43)c(C)c12 (single isomer, unassigned) [compound 177] | 0.02 µM | 0.06 µM | 0.09 µM |  |  |  |  | 
N#Cc1cnc2c(n1)CC[C@@H]2NC(=O)Cc1cc2cc(F)c(F)cc2[nH]c1=O [compound 1083] |  |  |  | 4.15 µM | 5.80 µM | 100.00 µM |  | 
Cc1nc(C#N)cnc1[C@@H](C)NC(=O)C(F)(F)c1c(C)c2c(C)nccc2[nH]c1=O (single isomer, unassigned) [compound 3503] | 0.89 µM | 3.50 µM | 5.70 µM |  |  |  |  | 
Cc1nc(C#N)cnc1[C@H](C)NC(=O)Cc1cc2cc(F)c(F)cc2[nH]c1=O (single isomer, unassigned) [compound 6] |  |  |  | 0.30 µM | 0.81 µM | 0.95 µM |  | 
Cc1nccc2[nH]c(=O)c(CC(=O)N[C@@H](C)c3ccccc3O)c(C)c12 (single isomer, unassigned) [compound 321] | 100.00 µM | 100.00 µM | 100.00 µM |  |  |  |  | 
Cc1nccc2[nH]c(=O)c(C(F)(F)C(=O)N[C@@H](C)c3cnc(C#N)cn3)c(C)c12 (single isomer, unassigned) [compound 3521] | 2.68 µM | 14.61 µM | 34.58 µM |  |  |  |  | 
Cc1nccc2[nH]c(=O)c(CC(=O)N[C@@H](C)c3cccnc3O)c(C)c12 (single isomer, unassigned) [compound 307] | 100.00 µM | 100.00 µM | 100.00 µM |  |  |  |  | 
Cc1cc(C#N)nnc1[C@H](C)NC(=O)Cc1c(C)c2c(C)nccc2[nH]c1=O [compound 490] | 45.80 µM | 100.00 µM | 100.00 µM |  |  |  |  | 
Cc1c(CC(=O)N[C@H](C)c2ncc(F)cc2F)c(=O)[nH]c2ccc(F)c(C(F)(F)F)c12 [compound 9] |  |  |  | 0.65 µM | 3.29 µM | 0.92 µM |  | 
Cc1nc(C#N)ccc1[C@H](C)NC(=O)Cc1c(C)c2c(C)c(F)ccc2[nH]c1=O (single isomer, unassigned) [compound 2079] |  |  |  | 0.03 µM | 0.13 µM | 0.07 µM |  | 
CCc1nccc2[nH]c(=O)c(CC(=O)N[C@@H](C)c3ccc(F)cc3F)cc12 [compound 437] | 1.28 µM | 91.43 µM | 100.00 µM |  |  |  |  | 
COc1ccc([C@H](C)NC(=O)Cc2c(C)c3c(C)nccc3[nH]c2=O)cc1 (single isomer, unassigned) [compound 287] | 100.00 µM | 100.00 µM | 100.00 µM |  |  |  |  | 
Cc1c(C(F)(F)C(=O)NC(C)c2cccc(C#N)n2)c(=O)[nH]c2ccc(F)c(F)c12 (single isomer, unassigned) [Compound 2587] |  |  |  | 5.65 µM | 5.60 µM | 100.00 µM |  | 
Cc1c(CC(=O)N[C@H](CO)c2ccc(C#N)cc2F)c(=O)[nH]c2ccc(C#N)nc12 [compound 220] | 100.00 µM | 100.00 µM | 100.00 µM |  |  |  |  | 
COc1ccc2[nH]c(=O)c(CC(=O)N[C@@H](C)c3ccc(F)cc3F)c(C)c2n1 [compound 409] | 0.03 µM | 0.04 µM | 0.59 µM |  |  |  |  | 
Cc1c(CC(=O)N[C@H](CO)c2ccc(C#N)cc2F)c(=O)[nH]c2ccc(C(F)(F)F)nc12 [compound 218] | 14.86 µM | 100.00 µM | 100.00 µM |  |  |  |  | 
Cc1c([C@H](C)C(=O)N[C@@H](C)c2ccc(C#N)cc2F)c(=O)[nH]c2ccnc(C#N)c12 (single isomer, unassigned) [compound 174] | 0.08 µM | 0.08 µM | 0.55 µM |  |  |  |  | 

Source: US12448369B2 (Edgewise Therapeutics, Inc., priority 2023, dated 2025)
